Where no end group is shown, it is not given here. [ ]: non-standard residue; d: D form. The star is where a group is joined. Biotin = O=C1N[C@H]2[C@H](CS[C@H]2CCCCC(=O)*)N1; Lys(Me3) = C[N+](C)(C)CCCC[C@H](N)C(=O)O; d = 2'-deoxy (DNA)
Assays:
[1] = test system: ADNP; test: siRNA knockdown, western blot; type: cell-based, mouse; details: NIH3T3, vs scrambled siRNA and untransfected (mock)
[2] = test system: H3K27me1; test: H3K27me1 levels and distribution after ADNP knockdown; type: cell-based, mouse; details: NIH3T3, ADNP knockdown; western blot and immunofluorescence
[3] = test system: H3K9me3; test: H3K9me3 levels and distribution after ADNP knockdown; type: cell-based, mouse; details: NIH3T3, ADNP knockdown; western blot and immunofluorescence
[4] = test system: major satellite repeats; test: Major satellite repeat transcripts, real time PCR; type: cell-based, mouse; details: ADNP knockdown NIH3T3; relative to GAPDH; vs scrambled siRNA or mock; triplicate
[5] = test system: HP1α, HP1β and HP1γ; test: HP1 distribution after ADNP knockdown; type: cell-based, mouse; details: NIH3T3, ADNP knockdown; immunofluorescence
[6] = test system: major satellite repeat sequences; test: CpG methylation, Southern blot after TaiI digestion; type: cell-based, mouse; details: NIH3T3, ADNP knockdown
[7] = test system: H4K20me3; test: H4K20me3 levels and distribution after ADNP knockdown; type: cell-based, mouse; details: NIH3T3, ADNP knockdown; western blot and immunofluorescence
[8] = test system: HP1; test: ADNP peptide pulldown of HeLa S3 nuclear extract, western blot; type: binding

Row | Substance | ADNP protein levels [1] | effects on levels and distribution of H3K27me1 [2] | effects on levels and distribution of H3K9me3 [3] | level of major satellite transcripts [4] | distribution of HP1α, HP1β and HP1γ [5] | reduction of CpG methylation at major satellite repeats [6] | effects on levels and distribution of H4K20me3 [7] | HP1 binding [8]
1 | ADNP siRNA: sense 5′ - [GAUUCUUAUGAGGCUAGGA] RNA [TT] DNA, antisense 5′ - [UCCUAGCCUCAUAAGAAUC] RNA [TT] DNA (RNA, 3' dTdT, backbone not given here) [sense 5′ - [GAUUCUUAUGAGGCUAGGA]; RNA [TT]; DNA, antisense 5′ - [UCCUAGCCUCAUAAGAAUC]; DNA] | significant reduction | no effects | no effects | elevated | appeared normal | no reduction | no effects | –
2 | Biotin-EDDSYEAR[Lys(Me3)]SFLTKYFNKQP [ADNPK767me3, methylated ADNP peptide used for pulldown] | – | – | – | – | – | – | – | does not bind
